# Experimental data taken from US7067113B2, “Methods for identifying compounds for regulating muscle mass or function using dopamine receptors” (The Procter & Gamble Company, priority 2002, dated 2006).
# How the values were obtained:
# [1] = system: mouse sciatic nerve denervation atrophy model; experiment: mouse sciatic nerve denervation atrophy model; assay type: in vivo; conditions: male mice
# Description: Legend: A—physiological saline (control); B—SKF 81297 (0.3 mg/kg)+theophylline; C—SKF 81297 (1.0 mg/kg)+theophylline; D—SKF 81297 (3.0 mg/kg)+theophylline. *−p≦0.05 compared to saline. Following denervation of the right sciatic nerve, male mice were injected subcutaneously in the midscapular region twice daily with SKF 81297, at the doses indicated above or vehicle control (physiological saline) for nine days. SKF 81297 was co-administered with twice daily intra-peritoneal dosing of the phosphodiesterase inhibitor theophylline (30 mg/kg). On day nine, the tibialis anterior and medial gastrocnemius muscles were removed and weighed to determine the degree of atrophy.
# The sciatic nerve denervation atrophy model involves anesthetizing the animal followed by the surgical removal of a short segment of either the right or left sciatic nerve, e.g., in mice the sciatic nerve is isolated approximately at the midpoint along the femur and a 3–5 mm segment is removed. This denervates the lower hind limb musculature resulting in atrophy of these muscles. Typically, innervation to the biceps femoris is left intact to provide satisfactory motion of the knee for virtually normal ambulation. Typically, in untreated animals, muscle mass of the denervated muscles is reduced 30–50% ten days following denervation. Following denervation, test compounds are administered e.g., by injection or by continuous infusion, e.g., via implantation of an osmotic minipump (e.g., Alzet, Palo Alto, Calif.), to determine their effect on denervation induced skeletal muscle atrophy. At various times following denervation, the animals are euthanized and lower leg muscles are dissected rapidly from both the denervated and nondenervated legs, the muscles, cleaned of tendons and connective tissue, are weighed. The extent of atrophy in the affected muscles is analyzed, for example, by measuring muscle mass, muscle cross-sectional area, myofiber cross-sectional area or contractile protein content.
# [2] = system: casting-induced (disuse) atrophy in mice; experiment: leg casting disuse atrophy model; assay type: in vivo, mouse; conditions: male mice
# Description: Legend: A—physiological saline (control); B—SKF 81297 (0.3 mg/kg)+theophylline; C—SKF 81297 (1.0 mg/kg)+theophylline; D—SKF 81297 (3.0 mg/kg)+theophylline; *−p≦0.05 compared to saline. Following casting of the right hind leg, male mice were injected subcutaneously in the midscapular region twice daily, with SKF 81297 or vehicle control (physiological saline) for ten days at the daily delivered dose indicated. SKF 81297 was co-administered with twice daily intra-peritoneal dosing of the phosphodiesterase inhibitor theophylline (30 mg/kg). On day ten, the tibialis anterior muscle was removed and weighed to determine the degree of atrophy.
# Legend: A—physiological saline (control); B—fenoldopam (0.3 mg/kg); C—fenoldopam (1.0 mg/kg); D—fenoldopam (3.0 mg/kg); *−p≦0.05 compared to saline. Following casting of the right hind leg, male mice were injected subcutaneously in the midscapular region twice daily, with fenoldopam or vehicle control (physiological saline) for ten days at the daily delivered dose indicated. On day ten, the medial gastrocnemius muscle was removed and weighed to determine the degree of atrophy.
# The leg casting disuse atrophy model involves casting one hind leg of an animal from the knee down through the foot. Typically, muscle mass is reduced 20–40% after ten days of casting. Following casting, test compounds are administered by injection or by continuous infusion via implantation of an osmotic minipump (e.g., Alzet, Palo Alto, Calif.) to determine their effect on leg casting induced skeletal muscle atrophy. At various times following leg casting, the extent of atrophy in the affected muscles is analyzed as described above for the denervation model.
Compound,"denervation-induced atrophy of the tibialis anterior muscle (muscle weight) ([1]; s.c. twice daily for nine days, 0.3, 1.0, 3.0 mg/kg, + theophylline 30 mg/kg i.p. twice daily, FIG. 1A)","denervation-induced atrophy of the medial gastrocnemius muscle (muscle weight) ([1]; s.c. twice daily for nine days, 0.3, 1.0, 3.0 mg/kg, + theophylline 30 mg/kg i.p. twice daily, FIG. 1B)","hypertrophy in the normal (non-denervated) tibialis anterior muscle ([1]; s.c. twice daily for nine days, + theophylline 30 mg/kg i.p., FIG. 1A)","hypertrophy in the normal (non-denervated) medial gastrocnemius muscle ([1]; s.c. twice daily for nine days, + theophylline 30 mg/kg i.p., FIG. 1B)","disuse-induced atrophy of the tibialis anterior muscle (muscle weight) ([2]; right hind leg casted, s.c. twice daily for ten days, 0.3, 1.0, 3.0 mg/kg, + theophylline 30 mg/kg i.p. twice daily, FIG. 2)","hypertrophy of the tibialis anterior muscles of the non-casted leg ([2]; s.c. twice daily for ten days, + theophylline 30 mg/kg i.p., FIG. 2)","disuse-induced atrophy of the medial gastrocnemius muscle (muscle weight) ([2]; right hind leg casted, s.c. twice daily for ten days, 0.3, 1.0, 3.0 mg/kg, FIG. 3)"
"Oc1cc2c(c(Cl)c1O)CCNCC2c1ccccc1 (stereo not shown) [SKF 81297, 6-chloro-7,8-dihydroxyl-1-phenyl-2,3,4,5-tetrahydro-1H-3-benzazepine]",inhibits,inhibits,induces hypertrophy,induces hypertrophy,inhibits,statistically significant hypertrophy,–
"Oc1ccc(C2CNCCc3c2cc(O)c(O)c3Cl)cc1 (stereo not shown) [Fenoldopam, 6-chloro-2,3,4,5-tetrahydro-1-(4-hydroxyphenyl)-[1H]-3-benzazepine-7,8-diol]",–,–,–,–,–,–,inhibits
